Two compounds from PMC5104457, “ATP-Competitive MLKL Binders Have No Functional Impact on Necroptosis” (PLoS ONE, 2016) can be followed below.

The target of assay [1] is T1, RIPK1 kinase domain (Homo sapiens, UniProt Q13546).
T1 construct: purchased DiscoverX
T1 sequence (Q13546 17-289 limits assumed): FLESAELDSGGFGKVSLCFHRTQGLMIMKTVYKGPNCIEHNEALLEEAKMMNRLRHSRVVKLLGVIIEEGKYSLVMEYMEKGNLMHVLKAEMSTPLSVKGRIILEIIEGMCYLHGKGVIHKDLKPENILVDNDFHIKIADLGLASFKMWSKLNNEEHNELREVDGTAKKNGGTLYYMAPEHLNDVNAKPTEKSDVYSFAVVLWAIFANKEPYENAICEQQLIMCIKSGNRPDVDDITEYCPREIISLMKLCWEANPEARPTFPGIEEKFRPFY
Kind of assay: ATP-competitive probe displacement assay, RIPK1. The format is binding. The conditions noted are these: average of duplicates. As to the method: Compound binding constants (KDs) were determined at DiscoverX using their KINOMEscan assay platform. This competition binding assay was previously described in Karaman et al. (2008)[18]. Briefly, full length MLKL was expressed in HEK-293 cells as a fusion with an NFκB DNA binding domain and subsequently tagged with a qPCR detection amplicon via interaction with NFκB. […] Twenty microliters of binding reactions were carried out in 384-well polypropylene plates for 1 hour at room temperature. Beads were subsequently washed and resuspended in elution buffer for 30 minutes at room temperature with shaking. The concentration of MLKL in the eluates was measured by qPCR and compound binding constants were calculated using a standard dose-response curve.
A similar approach was used to measure binding affinities for RIPK1 and RIPK3 kinase domains.

Assay [2] has as its target T2, full length His-MBP-MLKL-3 (Homo sapiens, UniProt Q8NB16).
T2 construct: The full length MLKL was prepared in baculovirus; made in house; host or cells: baculovirus-infected sf9 insect cells
T2 sequence (Q8NB16 1-471): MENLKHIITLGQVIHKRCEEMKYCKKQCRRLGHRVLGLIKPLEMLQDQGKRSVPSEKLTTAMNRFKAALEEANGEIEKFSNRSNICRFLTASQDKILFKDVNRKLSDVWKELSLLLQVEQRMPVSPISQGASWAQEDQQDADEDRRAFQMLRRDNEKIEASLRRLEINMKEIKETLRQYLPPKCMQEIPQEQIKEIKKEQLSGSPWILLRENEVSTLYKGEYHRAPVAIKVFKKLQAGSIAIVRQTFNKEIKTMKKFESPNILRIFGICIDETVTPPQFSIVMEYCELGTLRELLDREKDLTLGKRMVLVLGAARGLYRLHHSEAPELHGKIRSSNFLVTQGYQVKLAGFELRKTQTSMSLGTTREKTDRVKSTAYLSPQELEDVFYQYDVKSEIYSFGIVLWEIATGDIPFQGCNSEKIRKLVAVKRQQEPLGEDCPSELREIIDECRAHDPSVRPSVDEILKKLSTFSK
Nature of the assay: Second harmonic generation (SHG) conformational assay, full length MLKL. The conditions noted are these: 10 μM compound, 20 minutes, mean ± SE. The method, then: The full length MLKL was prepared in baculovirus using a bacmid DNA which was modified to include a Tev cleavable N-terminal His6 maltose binding protein (His-MBP) tag. His-MBP-MLKL-3 was expressed in baculovirus-infected sf9 insect cells grown in SF-900 II serum-free medium (Invitrogen). Cells were harvested by centrifugation 48 hours post-infection. The cells were resuspended in lysis buffer (50mM TRIS pH 8.0, 500mM NaCl, 10% glycerol, 1mM DTT and Roche EDTA-free protease inhibitor cocktail) and were lysed using a microfluidizer. The lysate was clarified by centrifugation at 20,000 x g for 1 hour at 4°C and the His-MBP-MLKL-3 was captured by batch binding to Nickel NTA resin overnight at 4°C. The resin was washed with buffer A (25mM TRIS pH 8.0, 250mM NaCl, 10% glycerol, 1mM DTT) and loaded into an XK column and washed until no non-specific unbound protein was detected. His-MBP-MLKL3 was eluted from the column using buffer A supplemented with 250mM imidazole pH 8.0 and analyzed by SDS-PAGE. […]
Experiments were performed on a Biodesy Delta System. […] The fundamental is directed to an arrangement of prisms integrated with the custom, glass-bottomed Biodesy Delta Read Plates, where it undergoes total internal reflection (TIR) to generate the evanescent field at the glass-lipid bilayer interface. […]

pKd: −log10 of the molar value.

The pKd is −log10 of the Kd, conventionally taken in molar units. Low values mean a large Kd, high ones a small Kd. In the case of `Nc1nccnc1C(=O)O[C@@H](C(=O)Nc1ccc(F)cc1)c1ccccc1` [cpd 4, 3-Amino-pyrazine-2-carboxylic acid (R)-(4-fluorophenylcarbamoyl)-phenyl-methyl ester], in assay [1], the pKd was under 4.52.

In the case of `CN(c1ccc(NC(=O)Nc2ccc(OC(F)(F)F)cc2)cc1)c1ccnc(Nc2cccc(S(N)(=O)=O)c2)n1` [cpd 1, reference compound], the “% change in SHG intensity, Full-length HisMBP-MLKL-3” value in assay [2] is reported as 25.9 ± 1.6%.
